Measurements from ChEMBL document CHEMBL1155757, “Cytotoxicity of Ganoderma lucidum triterpenes” (J Nat Prod, 2001).
pIC50: −log10 of the molar value.

Tests used:
Format in all cases: functional, cell-based
[1] = Cytotoxicity against human CCM2 cells
P388 = experiment: Cytotoxicity against mouse P388 cells
KB = experiment: Cytotoxicity against human KB cells
[2] = Cytotoxicity against human HepG2(2.2.15) cells
HepG2 = experiment: Cytotoxicity against human HepG2 cells

| SMILES | pIC50 [1] | pIC50 (P388) | pIC50 (KB) | pIC50 [2] | pIC50 (HepG2) |
| --- | --- | --- | --- | --- | --- |
| C[C@H](CCC(=O)O)[C@H]1CC(=O)[C@@]2(C)C3=C(C(=O)C[C@]12C)[C@@]1(C)CC[C@H](O)C(C)(C)[C@@H]1C[C@@H]3O [LUCIDENIC ACID N] | 4.45 | 7.92 | 4.57 | 8.78 | 9.69 |
| C[C@H](CC(=O)C[C@@H](C)[C@H]1CC(=O)[C@@]2(C)C3=C(C(=O)C[C@]12C)[C@@]1(C)CCC(=O)C(C)(C)[C@@H]1CC3=O)C(=O)O [GANODERIC ACID E] | 4.51 | 5.30 |  | 9.98 | 9.84 |
| C[C@H](CCC(=O)O)[C@H]1CC(=O)[C@@]2(C)C3=C(C(=O)C[C@]12C)[C@@]1(C)CCC(=O)C(C)(C)[C@@H]1C[C@@H]3O [LUCIDENIC ACID A] | 4.56 | 7.77 | 4.77 | 9.69 | 9.79 |
